Measured values as given in US11485751B2, “Apramycin derivatives” (WAYNE STATE UNIVERSITY, priority 2017, dated 2022).
Values after ≈ are worked out from the molar mass of the structure shown.

Key:
[1] = system: AG290, Enterobacter cloacae; test: MIC reference strain AG290; format: cell-based; conditions: Enterobacter cloacae; reference strain; read-out: MIC AG290 E. cloacae
Outline: (§1)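 CLSI-conform broth microdilution testing gives the minimal concentration preventing visible growth of these reference strains.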

[2] = system: Engineered E. coli AG103 armA; test: Activity against G1405-methylated 16S-rRNA, E. coli AG103 armA; format: cell-based
Outline: (§2)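 Read-out is the minimal inhibitory concentration, obtained in broth microdilution run according to CLSI guidelines (M07-A10).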

[3] = system: AG039 MRSA AAC(6′)-I ANT(4′)-I; test: Antibacterial activity, clinical isolate AG039; format: cell-based
Outline: (§3)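 Reported as MIC; method was a CLSI-conforming microdilution in broth.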

[4] = system: A baum. AG227 APH(3′)-I armA; test: Activity against G1405-methylated 16S-rRNA, clinical isolate AG227; format: cell-based
Outline: as §2

AG163 E. coli APH(3′)-I = test: Antibacterial activity, clinical isolate AG163; format: cell-based
Outline: as §3

[5] = system: AG215, Klebsiella pneumonia; test: MIC reference strain AG215; format: cell-based; conditions: Klebsiella pneumoniae, reference strain; read-out: MIC AG215 K. pneumonia
Outline: as §1

AG001 E. coli WT = test: Antibacterial activity, clinical isolate AG001; format: cell-based; set-up: unit not given here
Outline: as §3

[6] = system: Engineered E. coli pH430 WT; test: Activity, engineered E. coli pH430 WT; format: cell-based; conditions: wild type
Outline: as §2

[7] = system: K. pneum. AG269 AAC(3)-II AAC(6′)-I rmtB; test: Activity against G1405-methylated 16S-rRNA, clinical isolate AG269; format: cell-based
Outline: as §2

bacterial ribosomes = test: in-vitro translation assay, bacterial ribosomes; format: biochemical
Outline: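 Inhibitory potency was determined as IC50 in in-vitro translation systems based on bacterial ribosomes, human chimeric (mitochondrial-type) ribosomes or rabbit reticulocyte (cytosolic) ribosomes.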

[8] = system: AG042 MRSA AAC(6′)-I ANT(4′)-I APH(2′); test: Antibacterial activity, clinical isolate AG042; format: cell-based; set-up: unit not given here
Outline: as §3

[9] = system: human mitochondrial ribosomes; test: in-vitro translation assay, human mitochondrial (human chimeric) ribosomes; format: biochemical
Outline: (§4)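 Each ribosome preparation (bacterial, human chimeric as the mitochondrial model, rabbit reticulocyte as the cytosolic model) drives in-vitro translation with the test compound present. Inhibition of translation gives the IC50.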

[10] = system: Engineered E. coli pH424 armA; test: Activity against G1405-methylated 16S-rRNA, E. coli pH424 armA; format: cell-based
Outline: as §2

[11] = system: AG033 P. aer. APH(3′)-II AAC(6′)-I; test: Antibacterial activity, clinical isolate AG033; format: cell-based; set-up: unit not given here
Outline: as §3

[12] = system: Engineered E. coli pH426 rmtC; test: Activity against G1405-methylated 16S-rRNA, E. coli pH426 rmtC; format: cell-based
Outline: as §2

[13] = system: clinical isolates carrying AAC(3)-IV; test: MIC broth microdilution, AAC(3)-IV; format: cell-based; conditions: clinical isolates, IMM Univ. Zurich; AAC(3)-IV; read-out: MIC AAC(3)-IV
Outline: (§5)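 MICs obtained by broth microdilution following CLSI M07-A10, tested against clinical isolates from the Institute of Medical Microbiology, Univ. Zurich; values in μg/ml.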

AG032 P. aer. APH(3′)-II = test: Antibacterial activity, clinical isolate AG032; format: cell-based; set-up: unit not given here
Outline: as §3

[14] = system: Engineered E. coli pH425 rmtB; test: Activity against G1405-methylated 16S-rRNA, E. coli pH425 rmtB; format: cell-based
Outline: as §2

[15] = system: Enterob. AG302 AAC(3)-II AAC(6′)-I rmtC; test: Activity against G1405-methylated 16S-rRNA, clinical isolate AG302; format: cell-based
Outline: as §2

[16] = system: clinical isolates carrying APH(3′)-I; test: MIC broth microdilution, APH(3′)-I; format: cell-based; conditions: IMM Univ. Zurich
AG003 E. coli AAC(3)-II = test: Antibacterial activity, clinical isolate AG003; format: cell-based
Outline: as §3

[17] = system: Engineered E. coli pH427 rmtF; test: Activity against G1405-methylated 16S-rRNA, E. coli pH427 rmtF; format: cell-based
Outline: as §2

[18] = system: clinical isolates carrying APH(3′)-VI; test: MIC broth microdilution, APH(3′)-VI; format: cell-based; conditions: IMM Univ. Zurich
AG055 E. coli WT = test: Antibacterial activity, clinical isolate AG055; format: cell-based; set-up: unit not given here
Outline: as §3

AG031 P. aer. APH(3′)-II = test: Antibacterial activity, clinical isolate AG031; format: cell-based; set-up: unit not given here
Outline: as §3

AG038 MRSA = test: Antibacterial activity, clinical isolate AG038; format: cell-based; set-up: unit not given here
Outline: as §3

[19] = system: clinical isolates carrying APH(3′)-II; test: MIC broth microdilution, APH(3′)-II; format: cell-based; conditions: clinical isolates, IMM Univ. Zurich; APH(3′)-II; read-out: MIC APH(3′)-II
[20] = system: Enterobacteriaceae, Pseudomonas, Acinetobacter, and Mycobacteria; test: Antibacterial potency, Tables 4+5 overall; format: cell-based; conditions: against Enterobacteriaceae, Mycobacteria (Tables 4+5)
Text: Minimal inhibitory concentrations (MIC) have been determined by broth microdilution assays (CLSI. Methods for Dilution Antimicrobial Susceptibility Tests for Bacteria That Grow Aerobically; Approved Standard—Tenth Edition. CLSI document M07-A10. Wayne, Pa.: Clinical and Laboratory Standards Institute; 2015.).

[21] = system: AG220, Pseudomonas aeruginosa ATCC27853; test: MIC reference strain AG220; format: cell-based; conditions: Pseudomonas aeruginosa, ATCC27853, reference strain ATCC27853; read-out: MIC AG220 P. aeruginosa
Outline: as §1

[22] = system: clinical isolates carrying APH(3′)-III; test: MIC broth microdilution, APH(3′)-III; format: cell-based; conditions: IMM Univ. Zurich
[23] = system: human cytosolic ribosomes; test: in-vitro translation assay, human cytosolic ribosomes; format: biochemical
Outline: as §4

[24] = system: AG212, Escherichia coli ATCC25922; test: MIC reference strain AG212; format: cell-based; conditions: Escherichia coli; reference strain ATCC25922; read-out: MIC AG212 E. coli
Outline: as §1

[25] = system: E. coli AG153 AAC(3)-II APH(3′)-II rmtB; test: Activity against G1405-methylated 16S-rRNA, clinical isolate AG153; format: cell-based
Outline: as §2

[26] = system: AG225, Acinetobacter baumannii pittii; test: MIC reference strain AG225; format: cell-based; conditions: Acinetobacter baumannii, reference strain; read-out: MIC AG225 A. baumannii
Outline: as §1

AG173 E. coli AAC(3)-IV = test: Antibacterial activity, clinical isolate AG173; format: cell-based
Outline: as §3

isolates carrying apmA = test: MIC broth microdilution, apmA; format: cell-based; conditions: apmA resistance gene
Outline: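 MICs (μg/ml) were determined by CLSI M07-A10 broth microdilution against apmA-carrying clinical isolates from the Institute of Medical Microbiology, University of Zurich.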

N. gonorrhoeae = test: Disk diffusion N. gonorrhoeae; format: cell-based
WT clinical isolates = test: MIC broth microdilution, WT; format: cell-based; conditions: read-out: MIC WT, clinical isolates, IMM Univ. Zurich; wild type
Outline: as §5

ATCC19977 M. abcessus = test: MIC reference strain ATCC19977; format: cell-based; conditions: reference strain; read-out: MIC ATCC19977 M. abcessus
Outline: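 Values are minimal inhibitory concentrations, obtained by serial dilution of compound in broth according to CLSI guidance for aerobes.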

Row | Compound | MIC [1] [mg/L] | Activity E. coli AG103 armA [2] | Antibacterial activity AG039 MRSA AAC(6′)-I ANT(4′)-I [3] | Activity A baum. AG227 APH(3′)-I armA [4] | Antibacterial activity AG163 E. coli APH(3′)-I (AG163 E. coli APH(3′)-I) | MIC [5] [mg/L] | Antibacterial activity AG001 E. coli WT (AG001 E. coli WT) | Activity E. coli pH430 WT [6] | Activity K. pneum. AG269 AAC(3)-II AAC(6′)-I rmtB [7] | IC50 (bacterial ribosomes) [µM] | Antibacterial activity AG042 MRSA AAC(6′)-I ANT(4′)-I APH(2′) [8] | IC50 [9] [µM] | Activity E. coli pH424 armA [10] | Antibacterial activity AG033 P. aer. APH(3′)-II AAC(6′)-I [11] | Activity E. coli pH426 rmtC [12] | MIC [13] [mg/L] | Antibacterial activity AG032 P. aer. APH(3′)-II (AG032 P. aer. APH(3′)-II) | Activity E. coli pH425 rmtB [14] | Activity Enterob. AG302 AAC(3)-II AAC(6′)-I rmtC [15] | MIC [16] [mg/L] | further results
1 | CNC1C(OC2OC(CO)C(N)C(O)C2O)OC2CC(N)C(OC3C(N)CC(N)C(O)C3OC3OC(CN)C(OCCN)C3O)OC2C1O [DC185, 5-O-β-[5-Amino-3-O-(2-aminoethyl)-5-deoxy-D-ribofuranosyl] apramycin] | 1 | 0.5-1 | 1 | 2 | 2 | 0.5 to 1 | 2 | 1 | 1 | 0.03 | 1 | 34 | 2 | 2 | 2 | > 32 | 2 | 2 | 1 | 1 (≈ 1.4 µM) | Antibacterial activity AG003 E. coli AAC(3)-II (AG003 E. coli AAC(3)-II): 1-2; Activity E. coli pH427 rmtF [17]: 2; MIC [18]: 2 mg/L (≈ 2.8 µM); Antibacterial activity AG055 E. coli WT (AG055 E. coli WT): 2; Antibacterial activity AG031 P. aer. APH(3′)-II (AG031 P. aer. APH(3′)-II): 2; Antibacterial activity AG038 MRSA (AG038 MRSA): 1; MIC [19]: 1 mg/L (≈ 1.4 µM); antibacterial potency [20]: increased antibacterial potency; MIC [21]: 1 to 2 mg/L; MIC [22]: 0.25 mg/L (≈ 0.35 µM); IC50 [23]: 26 µM; MIC [24]: 2 mg/L; Activity E. coli AG153 AAC(3)-II APH(3′)-II rmtB [25]: 4; MIC [26]: 2 mg/L; Antibacterial activity AG173 E. coli AAC(3)-IV (AG173 E. coli AAC(3)-IV): 4
2 | CNC1C(O[C@H]2OC(CO)[C@@H](N)C(O)C2O)O[C@H]2CC(N)[C@@H](O[C@@H]3C(N)C[C@@H](N)C(O)C3O)OC2C1O (stereo partly drawn) [apramycin] | 4 | 1-2 | 8 | 2 | 4 | 2 | 8-16 | 2-4 | 2 | 0.08 | 8 | 68 | 2-4 | 16-32 | 4 | > 128 | 8 | 4 | 4 | 1 to 2 (≈ 1.85 to 3.71 µM) | Antibacterial activity AG003 E. coli AAC(3)-II (AG003 E. coli AAC(3)-II): 8; Activity E. coli pH427 rmtF [17]: 4; MIC [18]: 4 mg/L (≈ 7.41 µM); Antibacterial activity AG055 E. coli WT (AG055 E. coli WT): 8; Antibacterial activity AG031 P. aer. APH(3′)-II (AG031 P. aer. APH(3′)-II): 8-16; MIC (isolates carrying apmA): 64 mg/L (≈ 119 µM); Antibacterial activity AG038 MRSA (AG038 MRSA): 4-8; MIC [21]: 4 mg/L; MIC [22]: 1 mg/L (≈ 1.85 µM); IC50 [23]: 71 µM; MIC [24]: 4 mg/L; Disk diffusion 25 nmol N. gonorrhoeae (N. gonorrhoeae): <8 mm; Activity E. coli AG153 AAC(3)-II APH(3′)-II rmtB [25]: 8; MIC (WT clinical isolates): 2 to 4 mg/L (≈ 3.71 to 7.41 µM); MIC [26]: 4 mg/L; MIC (ATCC19977 M. abcessus): 2 mg/L (≈ 3.71 µM); Antibacterial activity AG173 E. coli AAC(3)-IV (AG173 E. coli AAC(3)-IV): ≥128
